Read-outs that look alike come from different tables or passages of the source. Blank lines part the entries; values can stand above or below the molecule they belong to.
Legend:
[1] = cited from earlier work; for τ0 (fluorescence lifetime): dye concentrations of about 10^−7 M; for φb (quantum yield of photobleaching) / μ (mean number of survived excitation cycles): in water at low irradiances; for μ (mean number of survived excitation cycles): μ calculated from φb
[2] = target: avidin (Gallus gallus, UniProt P02701); assay: Homogeneous pH modulation assay in capillary tubes with Texas Red succinimidyl ester conjugated avidin; type: binding; conditions: for fluorescence intensity versus capillary without ligand: 3 μM ortho-Texas Red succinimidyl ester conjugated avidin, PBS pH 7.0
Excerpt: The pH modulation detection assay is amenable monitoring protein-small molecule and protein-protein interactions homogeneously in aqueous solution.
Avidin was labeled with Texas Red® succinimidyl ester as follows: The ortho isomer of Texas Red® succinimidyl ester was separated from the para isomer via thin layer chromatography utilizing silica plates (TLC Silica Gel 60 F254, EMD Chemicals) and 8:92 (methanol:chloroform) solvent. The separated band was removed from the plates with a razor and the ortho-Texas Red® succinimidyl ester was eluted from the silica with the same methanol/chloroform solvent. The dye (21 μg) was dried down with nitrogen in a 2 mL reactive vial containing a magnetic stir bar. To this reaction vial was added 0.5 mL of a 2 mg/mL avidin solution in 1 M sodium bicarbonate. This solution was allowed to stir for two hours at room temperature before being separated in a column containing Bio-Rad BioGel® Fine size purification resin in phosphate buffered saline (PBS, 10 mM potassium phosphate, 150 mM NaCl, 2 mM sodium azide, pH 7.2). This PBS was utilized as the elution buffer as well. The collected Texas-Red® succinimidyl ester-labeled avidin was utilized in the sensing experiments.
The two rectangular capillaries were passivated with a surface coating of bovine serum albumin (BSA). The BSA was then thoroughly rinsed away with phosphate buffered saline (10 mM Na2HPO4, 150 mM NaCl, pH 7.0). Next, a 3 μM solution of ortho-Texas Red® succinimidyl ester conjugated avidin was introduced in PBS into both capillaries. The right capillary additionally contained a 200 μM concentration of biotin (vitamin B7). A line scan across the micrograph is shown on the right. […] It should be noted that avidin is a positively charged protein and the biotin is […] in solution near pH 7.0. Therefore, the local pH near the protein surface is lowered when the small molecule binds.
As a control, the same set of experiments was run as in FIG. 38. However, this time the avidin was conjugated with para-Texas Red® succinimidyl ester (FIG. 39). […]

[3] = pH modulation assay of avidin and streptavidin on biotin-PE bilayers (turn on / turn off); type: binding; conditions: 1 μM protein
Excerpt: In addition to being able to detect negatively charged proteins, experiments have also been performed showing that our pH modulation assay can detect positively charged proteins. In this case, the sensor works as a “turn off” rather than as a “turn on” sensor. To investigate this, the binding of avidin, which is a positively charged macromolecule, was studied. The conditions were similar to those described above except where explicitly stated. Under all conditions, a saturation concentration of avidin or streptavidin was employed (1 μM). The bilayers each contained 1 mol % biotin-PE and 0.03 mol % ortho-Texas Red® DHPE.
However, upon adding 20 mol % DOPS (a negatively charged lipid) to the membrane, the assay was rerun at pH 9.25. Under these conditions, it detects avidin in a “turn off” mode and streptavidin in a “turn on” mode.

[4] = literature values; cited from earlier work
[5] = pH titration of Texas Red DHPE isomers in supported lipid bilayers (fluorescence); type: physicochemical
Procedure: The peak heights from the ortho-conjugated Texas Red® data in FIG. 5 may be used to obtain a titration curve for this isomer. […] To obtain the y-axis, the peak height at pH 3 was set to 1.0, and all other peak heights are relative to this value.
pH Titration and Buffer Preparation. […] These pH values were chosen to locate the pKA value of ortho-Texas Red® DHPE. The pH could be adjusted to the desired value by the dropwise addition of HCl or NaOH. The pH was measured with a standard glass electrode setup. […] Titration curves for the dye molecules in SLBs were obtained by systematically changing the pH of the bulk solution in a stepwise fashion. Fresh buffer was continuously flowed over the surface until no further changes in fluorescence intensity could be observed. […] Fluorescent micrographs of SLBs were captured with a standard epifluorescence microscope setup (Nikon Eclipse E800).
The fluorescence titration curve of the Texas Red® DHPE dye molecules was monitored in SLBs containing two narrow, parallel lines of bilayers with distinct dye chemistries. […] The second line was identical, but contained para-Texas Red® DHPE instead of the ortho isomer. The surrounding lipid matrix was a 1:1:1 mixture of DOPC, DPPC, and cholesterol.
In this case, however, a saturation concentration of IgG (500 nM) was first introduced into the bulk solution. Moreover, all fluorescence measurements as a function of pH were performed in the presence of 500 nM bulk protein concentration to ensure that the surface remained saturated with protein.
Titration Curves for ortho-Texas Red® DHPE. In a first set of experiments, the pH dependent responses of the ortho- and para-conjugated Texas Red® dyes were investigated in supported POPC bilayers with 0.5 mol % biotin-cap-PE. […] Bulk solutions at a given pH value were continuously flowed into the device until the fluorescence intensity remained constant. Fluorescence images at each pH value were then captured (FIG. 15a).
Titration Curve with a Saturated Protein Layer. […] First, two separated bilayer strips were formed as described above. […] All subsequent measurements were made by tuning the solution pH value, but keeping the bulk IgG concentration constant.

[6] = biotin/streptavidin binding, literature; cited from earlier work
[7] = pH 8.2, POPC, 1 mol % biotin-PE, 0.03 mol % ortho-Texas Red DHPE
[8] = pH 9.25, 20 mol % DOPS added to the membrane

Chain of avidin (P02701 25-152, species assumed): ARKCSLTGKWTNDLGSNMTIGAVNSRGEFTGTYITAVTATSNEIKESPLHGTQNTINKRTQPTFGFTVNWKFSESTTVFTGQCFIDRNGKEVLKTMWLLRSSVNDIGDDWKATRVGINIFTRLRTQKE

Molecule: Cc1cc(=O)[nH]c2cc(N)ccc12 [Carbostyril 124]
σ01 (λ) ([1]; 335 nm): 6.3 (335 nm) 10^−17 cm^2
τ0 (fluorescence lifetime) [1]: 5.0 ns
φb (quantum yield of photobleaching) [1]: 1.4 × 10^−3
μ (mean number of survived excitation cycles) [1]: 700

Molecule: Cc1cc(=O)oc2c3c4c(cc12)CCCN4CCC3 [Coumarin 102]
σ01 (λ) ([1]; 397 nm): 7.0 (397 nm) 10^−17 cm^2
τ0 (fluorescence lifetime) [1]: 5.5 ns
φb (quantum yield of photobleaching) [1]: 4.3 × 10^−4
μ (mean number of survived excitation cycles) [1]: 2 300

Molecule: Cc1cc(=O)oc2cc(N)ccc12 [Coumarin 120]
σ01 (λ) ([1]; 365 nm): 3.9 (365 nm) 10^−17 cm^2
τ0 (fluorescence lifetime) [1]: 5.0 ns
φb (quantum yield of photobleaching) [1]: 3.4 × 10^−4
μ (mean number of survived excitation cycles) [1]: 3 000

Molecule: CCNc1cc2oc(=O)cc(C(F)(F)F)c2cc1C [Coumarin 307]
σ01 (λ) ([1]; 397 nm): 5.4 (397 nm) 10^−17 cm^2
τ0 (fluorescence lifetime) [1]: 4.5 ns
φb (quantum yield of photobleaching) [1]: 1.5 × 10^−4
μ (mean number of survived excitation cycles) [1]: 6 500

Molecule: CN(C)c1ccc2c(-c3ccccc3C(=O)[O-])c3ccc(N(C)C)cc3[o+]c2c1 [TMR]
σ01 (λ) ([1]; 515 nm): 13.3 (515 nm) 10^−17 cm^2
τ0 (fluorescence lifetime) [1]: 2.3 ns
φb (quantum yield of photobleaching) [1]: 3.3 × 10^−7
μ (mean number of survived excitation cycles) [1]: 3 070 000

Molecule: O=C(O)CCCC[C@@H]1SC[C@@H]2NC(=O)N[C@@H]21 [biotin]
fluorescence intensity versus capillary without ligand ([2]; 200 μM biotin): approximately a factor of five higher
fluorescence difference between the two capillary tubes ([2]; avidin conjugated with para-Texas Red succinimidyl ester (control), saturation biotin): little if any fluorescence difference

Molecule: Coumarin 39
τ0 (fluorescence lifetime) [1]: 5.6 ns
φb (quantum yield of photobleaching) [1]: 1.2 × 10^−3
μ (mean number of survived excitation cycles) [1]: 800

Molecule: Rhodamine 123
σ01 (λ) ([1]; 515 nm): 12.3 (515 nm) 10^−17 cm^2
τ0 (fluorescence lifetime) [1]: 4.0 ns
φb (quantum yield of photobleaching) [1]: 6.4 × 10^−7
μ (mean number of survived excitation cycles) [1]: 1 570 000

Molecule: avidin: positively charged biotin-binding protein
detection by the pH modulation assay [3, 7]: turn off mode
detection by the pH modulation assay [3, 8]: turn off
isoelectric point (pI) [4]: 10.4

fluorescence intensity versus capillary without ligand ([2]; 500 μM biotinylated BSA): approximately a factor of eight higher
Molecule: biotinylated bovine serum albumin: biotinylated bovine serum albumin (BSA)

shift of apparent pKA to a more basic value ([5]; 20 mol % DOPS added to the membranes, with respect to FIG. 15b): 0.44 pH units
apparent pKA ([5]; SLB containing 0.5 mol % biotin-cap-PE on glass, pH 10.2 to 4.0, ortho/para ratio, FIG. 15b): 7.8±0.1
apparent shift of titration curve midpoint ([5]; saturated anti-biotin IgG layer (500 nM) versus no bound proteins): ~0.35 pH units
pKA of the dye ([5]; supported phospholipid bilayer, pH 3 to 11, FIG. 6): 7.8
Molecule: ortho-sulforhodamine 101-DHPE [ortho-Texas Red® DHPE]
fluorescence intensity of the band as a function of bulk pH ([5]; POPC bilayers with 0.5 mol % biotin-cap-PE, pH 10.2 to 4.0): showed higher intensity at more acidic pH values

Molecule: streptavidin: negatively charged biotin-binding protein
detection by the pH modulation assay [3, 7]: does not detect
detection by the pH modulation assay [3, 8]: turn on
isoelectric point (pI) [4]: 6.4
Kd [6]: ~1 pM

Reference: patent US8815778B2, “PH modulation method to detect ligand-receptor binding” (The Texas A&M University System, priority 2008, dated 2014)
